Values of other authors as cited in US8227223B2, “Method and apparatus for facilitating evaluating migration of cells in vitro” (Applied Biophysics, Inc., priority 2009, dated 2012).
One block for each compound: values may come before it.

Assays:
muscarinic receptor = conditions: CHO cells over expressing the muscarinic receptor
β-adrenergic receptor = conditions: BAEC endothelial cells
[1] = tested on: confluent bovine aortic endothelial cells

change of impedance upon binding of the agonist (muscarinic receptor; impedance at 4000 Hz): doubling of impedance
Compound: C[N+](C)(C)CCOC(N)=O [carbachol]

Compound: CC(C)NCC(O)c1ccc(O)c(O)c1 (stereo not shown) [isoproterenol]
change of impedance of the cell layer upon agonist binding (β-adrenergic receptor): readily measured increase in the impedance

inhibition of the carbachol impedance response (muscarinic receptor; antagonist against carbachol): can be inhibited
Compound: CN1CCN(CC(=O)N2c3ccccc3C(=O)Nc3cccnc32)CC1 [pirenzepine]

Compound: thrombin
change of impedance upon exposure (barrier function) [1]: drop in impedance
